Reference: article PMC8222254, “Self-assembly of an anion receptor with metal-dependent kinase inhibition and potent in vitro anti-cancer properties” (Nature Communications, 2021)
“And” between values parts separate entries of the source, which are not always exact repeats. Equal values may be shown once.

Key:
Assay in all cases: Kinase inhibition screen, cell-free 33P ATP assay at 10 μM
Format in all cases: biochemical
[1] = target: 140 purified human kinases (Homo sapiens, UniProt Q13164)
How it was run: (§1)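 Each complex tested in duplicate at 10 μM; cell-free radiometric assay using ^33P ATP on purified enzymes. Hits mapped by HGNC symbol onto the kinome tree.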

[2] = target: 140 purified human kinases (Homo sapiens, UniProt Q13177)
How it was run: as §1

[3] = target: T1, 140 purified human kinases (Homo sapiens, UniProt Q9NWZ3)
T1 sequence (Q9NWZ3 1-460): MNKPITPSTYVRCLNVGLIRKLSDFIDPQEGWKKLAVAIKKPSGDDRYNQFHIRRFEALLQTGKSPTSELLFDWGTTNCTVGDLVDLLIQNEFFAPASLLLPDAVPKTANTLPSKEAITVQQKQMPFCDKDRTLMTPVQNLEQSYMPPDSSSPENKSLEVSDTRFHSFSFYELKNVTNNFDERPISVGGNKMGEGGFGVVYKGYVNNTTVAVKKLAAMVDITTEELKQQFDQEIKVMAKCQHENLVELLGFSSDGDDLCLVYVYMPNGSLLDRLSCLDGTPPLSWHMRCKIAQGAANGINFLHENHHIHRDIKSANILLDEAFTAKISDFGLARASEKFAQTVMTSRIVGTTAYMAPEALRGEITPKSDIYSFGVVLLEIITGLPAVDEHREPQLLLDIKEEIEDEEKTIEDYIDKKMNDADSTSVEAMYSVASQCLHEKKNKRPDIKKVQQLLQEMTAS
How it was run: as §1

[4] = target: T2, 140 purified human kinases (Homo sapiens, UniProt Q96L34)
T2 sequence (Q96L34 1-752): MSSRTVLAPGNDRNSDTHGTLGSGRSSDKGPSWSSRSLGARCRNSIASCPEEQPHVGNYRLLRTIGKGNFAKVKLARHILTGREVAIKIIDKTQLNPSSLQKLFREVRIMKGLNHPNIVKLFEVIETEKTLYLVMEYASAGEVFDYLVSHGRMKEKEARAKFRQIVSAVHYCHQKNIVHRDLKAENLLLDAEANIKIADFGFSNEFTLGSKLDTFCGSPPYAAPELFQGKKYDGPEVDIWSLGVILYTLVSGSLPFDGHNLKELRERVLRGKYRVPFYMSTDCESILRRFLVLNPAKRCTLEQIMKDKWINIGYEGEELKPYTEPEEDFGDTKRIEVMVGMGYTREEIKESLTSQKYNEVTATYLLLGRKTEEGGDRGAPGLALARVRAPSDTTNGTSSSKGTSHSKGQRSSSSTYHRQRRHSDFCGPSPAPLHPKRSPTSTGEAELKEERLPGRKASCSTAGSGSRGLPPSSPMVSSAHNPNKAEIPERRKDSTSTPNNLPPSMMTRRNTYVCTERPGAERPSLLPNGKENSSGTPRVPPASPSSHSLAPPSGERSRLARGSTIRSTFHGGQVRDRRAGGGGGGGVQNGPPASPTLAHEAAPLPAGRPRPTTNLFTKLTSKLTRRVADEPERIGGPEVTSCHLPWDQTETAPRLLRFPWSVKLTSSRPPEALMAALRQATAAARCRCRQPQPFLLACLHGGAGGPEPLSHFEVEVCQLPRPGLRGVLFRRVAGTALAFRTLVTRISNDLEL
How it was run: as §1

[5] = target: T3, Src (Homo sapiens, UniProt P12931); conditions: for kinase activity of Src: 10 μM complex, cell-free screen; for % Activity Run 1 / % Activity Run 2: 10 µM
T3 construct: His tag (N); host or cells: baculovirus expression system
How it was run: as §1

[6] = target: 140 purified human kinases (Homo sapiens, UniProt P05129); conditions: PKCγ
How it was run: as §1

T3 sequence (P12931 whole entry): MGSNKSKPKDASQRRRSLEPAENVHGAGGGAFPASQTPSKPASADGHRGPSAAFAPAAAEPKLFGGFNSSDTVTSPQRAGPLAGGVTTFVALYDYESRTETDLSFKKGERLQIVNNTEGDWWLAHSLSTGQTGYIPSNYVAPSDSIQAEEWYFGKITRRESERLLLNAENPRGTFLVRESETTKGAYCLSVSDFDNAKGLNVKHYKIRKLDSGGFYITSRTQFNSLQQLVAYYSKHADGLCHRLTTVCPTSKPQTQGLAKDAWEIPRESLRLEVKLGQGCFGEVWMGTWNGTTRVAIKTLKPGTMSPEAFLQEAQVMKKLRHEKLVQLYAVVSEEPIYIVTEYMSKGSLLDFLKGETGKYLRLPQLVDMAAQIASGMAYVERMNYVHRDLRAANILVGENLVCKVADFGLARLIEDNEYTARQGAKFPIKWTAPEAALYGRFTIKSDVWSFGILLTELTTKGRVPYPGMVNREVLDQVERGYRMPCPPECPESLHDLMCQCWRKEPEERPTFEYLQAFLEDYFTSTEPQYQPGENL
140 purified human kinases (Homo sapiens, UniProt Q13164), sequence (Q13164 whole entry): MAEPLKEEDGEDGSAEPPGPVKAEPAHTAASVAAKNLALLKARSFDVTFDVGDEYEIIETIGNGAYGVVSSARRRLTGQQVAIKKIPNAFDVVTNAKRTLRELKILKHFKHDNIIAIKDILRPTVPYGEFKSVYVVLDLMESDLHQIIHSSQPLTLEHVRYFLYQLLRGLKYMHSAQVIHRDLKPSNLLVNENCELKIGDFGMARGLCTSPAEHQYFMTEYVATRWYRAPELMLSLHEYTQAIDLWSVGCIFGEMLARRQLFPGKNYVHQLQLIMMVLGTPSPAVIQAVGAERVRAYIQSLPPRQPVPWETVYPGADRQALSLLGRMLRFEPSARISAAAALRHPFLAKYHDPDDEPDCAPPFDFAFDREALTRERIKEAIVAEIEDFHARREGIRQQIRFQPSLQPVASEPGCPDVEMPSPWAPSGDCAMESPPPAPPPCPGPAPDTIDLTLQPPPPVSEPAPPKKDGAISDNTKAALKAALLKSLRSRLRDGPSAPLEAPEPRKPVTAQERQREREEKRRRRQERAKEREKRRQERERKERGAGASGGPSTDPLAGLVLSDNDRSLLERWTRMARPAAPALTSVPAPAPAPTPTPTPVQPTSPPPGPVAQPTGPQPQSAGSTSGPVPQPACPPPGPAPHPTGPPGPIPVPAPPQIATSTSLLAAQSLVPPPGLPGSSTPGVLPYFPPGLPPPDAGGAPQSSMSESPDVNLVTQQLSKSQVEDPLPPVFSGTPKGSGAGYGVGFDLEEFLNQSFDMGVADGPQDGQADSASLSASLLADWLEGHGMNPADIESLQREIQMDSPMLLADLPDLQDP
140 purified human kinases (Homo sapiens, UniProt Q13177), sequence (Q13177 whole entry): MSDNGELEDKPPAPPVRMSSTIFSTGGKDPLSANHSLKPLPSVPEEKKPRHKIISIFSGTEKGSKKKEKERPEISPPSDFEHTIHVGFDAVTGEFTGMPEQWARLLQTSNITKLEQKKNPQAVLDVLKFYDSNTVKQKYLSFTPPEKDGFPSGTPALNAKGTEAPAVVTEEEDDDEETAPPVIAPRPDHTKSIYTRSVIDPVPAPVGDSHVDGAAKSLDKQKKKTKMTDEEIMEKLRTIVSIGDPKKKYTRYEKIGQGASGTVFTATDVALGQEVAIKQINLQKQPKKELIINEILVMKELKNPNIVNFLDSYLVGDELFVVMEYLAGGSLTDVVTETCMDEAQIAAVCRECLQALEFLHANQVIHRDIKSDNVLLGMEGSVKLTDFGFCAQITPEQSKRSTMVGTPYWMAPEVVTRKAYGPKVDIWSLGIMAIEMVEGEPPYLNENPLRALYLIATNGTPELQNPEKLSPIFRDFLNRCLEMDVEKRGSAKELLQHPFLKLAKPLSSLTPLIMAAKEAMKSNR

[Cu+2].[Cu+2].[Cu+2].c1ccc(-c2csc(NCCN(CCNc3nc(-c4ccccn4)cs3)CCNc3nc(-c4ccccn4)cs3)n2)nc1.c1ccc(-c2csc(NCCN(CCNc3nc(-c4ccccn4)cs3)CCNc3nc(-c4ccccn4)cs3)n2)nc1 [[L2Cu3]6+]
% Activation, Mean value ([1]; ERK5): 2% | % Inhibition Run 1 ([1]; ERK5): 3% | % Inhibition Run 2 ([1]; ERK5): -7.2% | % Inhibition, Mean ([1]; ERK5): -2% | mean % activity ([1]; ERK5): 102% | % activity ([1]; ERK5, Run 1): 97% | % activity ([1]; ERK5, Run 2): 107.2% | % Inhibition Run 1 ([2]; PAK2): 44.4% | % Inhibition Run 2 ([2]; PAK2): 32.1% | % Inhibition, Mean ([2]; PAK2): 38% | mean % activity ([2]; PAK2): 62% | % activity ([2]; PAK2, Run 1): 55.6% | % activity ([2]; PAK2, Run 2): 67.9% | % Inhibition Run 1 ([3]; IRAK4): 53.9% | % Inhibition Run 2 ([3]; IRAK4): 65.2% | % Inhibition, Mean ([3]; IRAK4): 60% | mean % activity ([3]; IRAK4): 40% | % activity ([3]; IRAK4, Run 1): 46.1% | % activity ([3]; IRAK4, Run 2): 34.8% | % Inhibition Run 1 ([4]; MARK4): 52.1% | % Inhibition Run 2 ([4]; MARK4): 52.2% | % Inhibition, Mean ([4]; MARK4): 52% | mean % activity ([4]; MARK4): 48% | % activity ([4]; MARK4, Run 1): 47.9% | % activity ([4]; MARK4, Run 2): 47.8% | kinase activity of Src [5]: increased | % Activation, Mean value ([5]; Src): 115% | % Inhibition Run 1 ([5]; Src): -109.2% | % Inhibition Run 2 ([5]; Src): -121.7% | % Inhibition, Mean ([5]; Src): -115% | mean % activity ([5]; Src): 215% | % activity ([5]; Src, Run 1): 209.2% | % activity ([5]; Src, Run 2): 221.7% | % Activity Run 1 ([5]; Src): 209.20% | % Activity Run 2 ([5]; Src): 221.70% | % Inhibition Run 1 [6]: 58.1% | % Inhibition Run 2 [6]: 72% | % Inhibition, Mean [6]: 65% | mean % activity [6]: 35% | % activity ([6]; Run 1): 41.9% | % activity ([6]; Run 2): 28%

CC(=O)[O-].CC(=O)[O-].CC(=O)[O-].CC(=O)[O-].CC(=O)[O-].CC(=O)[O-].[Zn+2].[Zn+2].[Zn+2].c1ccc(-c2csc(NCCN(CCNc3nc(-c4ccccn4)cs3)CCNc3nc(-c4ccccn4)cs3)n2)nc1.c1ccc(-c2csc(NCCN(CCNc3nc(-c4ccccn4)cs3)CCNc3nc(-c4ccccn4)cs3)n2)nc1 [[L2Zn3]6+]
% Inhibition, Mean ([1]; ERK5): 16% | mean % activity ([1]; ERK5): 84% | % activity ([1]; ERK5, duplicate runs): 65% and 104% | % Inhibition, Mean ([2]; PAK2): 22% | % Inhibition, Run 1 / Run 2 ([2]; PAK2): 23% and 21% | mean % activity ([2]; PAK2): 78% | % activity ([2]; PAK2, duplicate runs): 77% and 79% | % Inhibition, Mean ([3]; IRAK4): 10% | % Inhibition, Run 1 / Run 2 ([3]; IRAK4): 13% and 7% | mean % activity ([3]; IRAK4): 90% | % activity ([3]; IRAK4, duplicate runs): 87% and 93% | % Inhibition, Mean ([4]; MARK4): 39% | % Inhibition, Run 1 / Run 2 ([4]; MARK4): 48% and 31% | mean % activity ([4]; MARK4): 61% | % activity ([4]; MARK4, duplicate runs): 52% and 70% | kinase activity of Src [5]: increased | % Activation, Mean value ([5]; Src): 75% | % Inhibition, Mean ([5]; Src): -75% | mean % activity ([5]; Src): 175% | % Activity Run 1 ([5]; Src): 169.0% | % Activity Run 2 ([5]; Src): 180.0% | % activity ([5]; Src, duplicate runs): 169% and 180% | % Inhibition, Mean [6]: 32% | % Inhibition, Run 1 / Run 2 [6]: 36% and 27% | mean % activity [6]: 68% | % activity ([6]; duplicate runs): 64% and 73%
